Measured values: patent publication EP0105692B1, “6-H-dibenz(b,e)(1,4)oxathiepin derivatives and their preparation” (MERCK FROSST CANADA INC., priority 1982, dated 1984)

Experiments:
[1] = test system: PGEA-induced bronchoconstriction (R2); assay: Inhibition of PGEA-induced bronchoconstriction in the guinea pig in vivo; conditions: Cavia porcellus, IV injection
[2] = test system: arachidonic acid induced bronchoconstriction; assay: Arachidonic acid induced bronchoconstriction and hypotension in the anaesthetized dog; format: in vivo; conditions: intraduodenal administration

O=S1(=O)c2ccccc2COc2ccc(CO)cc21 [Example 13, 2-Hydroxymethy!-6H-dibenz[b,e][1,4]oxathiepin-11,11-dioxide]
ED50 [1]: 10.5 mg/kg | inhibition of arachidonic acid induced bronchoconstriction [2]: inhibited | inhibition of arachidonic acid induced hypotension [2]: not
